ChEMBL document CHEMBL1201862, “PubChem BioAssay data set” (2004)
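Five concentrations, 48 hours, 96-well plates. The concentration for 50% growth inhibition is given as GI50.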 The source made the active and inactive calls. Rule as the data show it: active = GI50 up to about 1.1 µM and inactive = higher.

Legend:
Experiment in all cases: DTP human tumour cell line panel, 48 h
A498 = system: A498
EKVX = system: EKVX
OVCAR-3 = system: OVCAR-3
MDA-MB-435 = system: MDA-MB-435
Malme-3M = system: Malme-3M
IGROV-1 = system: IGROV-1
UACC-257 = system: UACC-257
TK-10 = system: TK-10
M14 = system: M14
SK-MEL-5 = system: SK-MEL-5
ACHN = system: ACHN
SNB-19 = system: SNB-19
CCRF-CEM = system: CCRF-CEM
HOP-92 = system: HOP-92
SNB-75 = system: SNB-75
SK-MEL-28 = system: SK-MEL-28
SK-OV-3 = system: SK-OV-3
SN12C = system: SN12C
A549 = system: A549
NCI-H522 = system: NCI-H522

Measured: GI50

Cc1ccc(-c2cs/c(=N\c3ccccc3)n2NC(=O)c2ccncc2)cc1
inactive: A498 > 75.2 µM | EKVX 37.3 µM | OVCAR-3 35.6 µM | MDA-MB-435 29.4 µM | Malme-3M 43.3 µM | IGROV-1 40.3 µM | UACC-257 37.3 µM | TK-10 > 54.7 µM | M14 33 µM | SK-MEL-5 18.7 µM | ACHN 35.3 µM | SNB-19 46.8 µM | CCRF-CEM 36.6 µM | HOP-92 88.5 µM | SNB-75 50.6 µM | SK-MEL-28 36.6 µM | SK-OV-3 33.7 µM | SN12C 45.2 µM | A549 31.8 µM

O=c1[nH]nc(Cc2ccccc2)n1O
inactive: A498 > 100 µM | EKVX > 100 µM | OVCAR-3 > 100 µM | MDA-MB-435 > 100 µM | Malme-3M > 100 µM | IGROV-1 > 100 µM | UACC-257 > 100 µM | TK-10 > 100 µM | SK-MEL-5 > 100 µM | ACHN > 100 µM | SNB-19 > 100 µM | CCRF-CEM > 100 µM | HOP-92 > 100 µM | SK-MEL-28 > 100 µM | NCI-H522 > 100 µM | SK-OV-3 > 100 µM | SN12C > 100 µM | A549 > 100 µM

C=CCOc1ccc(C(=N/NC(=O)c2ccccc2)/N=N/c2ccc(C)cc2)cc1OC
inactive: A498 25.6 µM | EKVX 30.9 µM | OVCAR-3 25.9 µM | MDA-MB-435 19.5 µM | Malme-3M 21.1 µM | IGROV-1 18.7 µM | UACC-257 19.6 µM | TK-10 30 µM | M14 22.7 µM | SK-MEL-5 17.9 µM | ACHN 34.8 µM | SNB-19 50 µM | CCRF-CEM 9.14 µM | HOP-92 8.79 µM | SNB-75 20.2 µM | SK-MEL-28 20 µM | NCI-H522 16.4 µM | SN12C 31.7 µM | A549 26.2 µM

O=C(/C=C\c1ccccc1-c1ccccc1)c1ccccc1
inactive: A498 > 100 µM | EKVX > 100 µM | OVCAR-3 > 100 µM | MDA-MB-435 > 100 µM | IGROV-1 > 100 µM | UACC-257 > 100 µM | TK-10 > 100 µM | M14 > 100 µM | SK-MEL-5 > 100 µM | ACHN > 100 µM | CCRF-CEM > 100 µM | HOP-92 > 100 µM | SNB-75 61.8 µM | NCI-H522 17.9 µM | SK-OV-3 > 100 µM | SN12C > 100 µM | A549 3.93 µM

COc1cc2c(cc1O)C1Cc3ccc(OC)c(O)c3C(C2)N1C (stereo not drawn)
inactive: A498 > 100 µM | EKVX > 100 µM | OVCAR-3 > 100 µM | MDA-MB-435 > 100 µM | Malme-3M > 100 µM | IGROV-1 > 100 µM | UACC-257 > 100 µM | TK-10 > 100 µM | M14 > 100 µM | SK-MEL-5 > 100 µM | ACHN > 100 µM | SNB-19 > 100 µM | CCRF-CEM > 100 µM | HOP-92 17.5 µM | SK-MEL-28 > 100 µM | NCI-H522 > 100 µM | SK-OV-3 > 100 µM | SN12C > 100 µM | A549 > 100 µM

CC(=O)O[C@H]1[C@@H](OC2CCCC2(c2ccccc2)c2ccccc2)O[N+]([O-])=C[C@@H]1c1ccccc1 (stereo partly drawn)
inactive: A498 8.22 µM | EKVX 13.4 µM | OVCAR-3 8.87 µM | MDA-MB-435 3.34 µM | IGROV-1 2.79 µM | UACC-257 9.25 µM | TK-10 9.71 µM | M14 6.18 µM | SK-MEL-5 8.02 µM | ACHN 5.07 µM | SNB-19 15.6 µM | CCRF-CEM 3.19 µM | HOP-92 5.92 µM | SNB-75 5.55 µM | SK-MEL-28 2.55 µM | NCI-H522 1.26 µM | SK-OV-3 14.5 µM | SN12C 4.66 µM | A549 9.33 µM

COc1ccc(/C=N/N=C(\N)NO)c(OC)c1OC
inactive: A498 26.7 µM | EKVX 16.6 µM | OVCAR-3 16.4 µM | MDA-MB-435 57.7 µM | Malme-3M 26.5 µM | IGROV-1 36.6 µM | TK-10 71.1 µM | M14 44.4 µM | SK-MEL-5 24.6 µM | ACHN 21.2 µM | SNB-19 > 100 µM | CCRF-CEM 20 µM | HOP-92 11.1 µM | SK-MEL-28 > 100 µM | NCI-H522 36.6 µM | SK-OV-3 51.4 µM | SN12C 34.4 µM | A549 13.3 µM

CN(C)Cc1cc(C(=O)/C=C/c2ccc(Cl)cc2Cl)cc(CN(C)C)c1O
inactive: A498 2.4 µM | EKVX 6.18 µM | OVCAR-3 2.99 µM | MDA-MB-435 4.06 µM | Malme-3M 8.85 µM | IGROV-1 2.72 µM | UACC-257 5.11 µM | TK-10 11.5 µM | M14 2.75 µM | SK-MEL-5 1.96 µM | ACHN 2.06 µM | SNB-19 4.12 µM | CCRF-CEM 2.16 µM | HOP-92 3.94 µM | SNB-75 2.95 µM | SK-MEL-28 6.25 µM | NCI-H522 2.56 µM | SN12C 1.78 µM | A549 2.89 µM
